Test results taken from US12016335B2, “Stabilized low-concentration metsulfuron-methyl liquid composition” (FMC CORPORATION, priority 2013, dated 2024).

Assay: Chemical stability of metsulfuron-methyl and thifensulfuron-methyl during aging of compositions at 40° C. (HPLC)
Assay type: physicochemical
Protocol: When prepared, the compositions were analyzed by HPLC for metsulfuron-methyl and thifensulfuron-methyl content. The stability of metsulfuron-methyl and thifensulfuron-methyl in the compositions prepared was then determined by aging samples in ovens at 40° C. for 4 and 8 weeks. Storage at 40° C. at 8 weeks simulates two-year storage at ambient temperature. Control samples were stored in a freezer at −6° C. […] At the end of the allotted times, samples were removed from the ovens and analyzed by HPLC for metsulfuron-methyl or thifensulfuron-methyl content. The relative chemical stability was calculated by dividing the assay of the oven-aged sample by that of the control sample analyzed on the same day.

COC(=O)c1sccc1S(=O)(=O)NC(=O)Nc1nc(C)nc(OC)n1 [thifensulfuron-methyl, methyl 3-[[[[(4-methoxy-6-methyl-1,3,5-triazin-2-yl)amino]carbonyl]amino]-sulfonyl]-2-thiophenecarboxylate]
stability of the thifensulfuron-methyl component itself: excellent stability
